Experimental data reported in ChEMBL document CHEMBL1909046, “DrugMatrix in vitro pharmacology data”.

What was measured:
[1] = DRUGMATRIX: GABAA, Flunitrazepam, Central radioligand binding (ligand: [3H] Flunitrazepam); format: cell membranes, Rattus norvegicus, Wistar, Brain, Membrane; conditions: Not Active = under 50% inhibition at 10 µM
[2] = target: Beta-2 adrenergic receptor (Homo sapiens, UniProt P07550); assay: DRUGMATRIX: Adrenergic beta2 radioligand binding (ligand: [3H] CGP-12177); format: cell membranes, Membrane; conditions: cho; Not Active = under 50% inhibition at 10 µM
Chain of Beta-2 adrenergic receptor (P07550 whole entry): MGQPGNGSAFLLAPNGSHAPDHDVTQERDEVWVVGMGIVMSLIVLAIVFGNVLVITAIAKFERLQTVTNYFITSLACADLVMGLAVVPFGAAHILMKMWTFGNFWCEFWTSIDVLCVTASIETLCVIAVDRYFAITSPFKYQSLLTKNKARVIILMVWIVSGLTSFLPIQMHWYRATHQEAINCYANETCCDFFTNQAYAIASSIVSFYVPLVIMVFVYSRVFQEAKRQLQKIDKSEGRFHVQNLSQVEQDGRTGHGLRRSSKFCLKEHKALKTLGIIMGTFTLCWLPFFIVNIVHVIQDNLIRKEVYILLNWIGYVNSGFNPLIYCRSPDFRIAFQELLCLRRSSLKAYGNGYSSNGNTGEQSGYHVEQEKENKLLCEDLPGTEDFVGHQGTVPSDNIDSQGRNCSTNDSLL

[3] = target: Sodium-dependent noradrenaline transporter (Homo sapiens, UniProt P23975); assay: DRUGMATRIX: Norepinephrine Transporter radioligand binding (ligand: [125I] RTI-55); format: cell membranes, MDCK, Membrane; conditions: mdck; Not Active = under 50% inhibition at 10 µM
Chain of Sodium-dependent noradrenaline transporter (P23975 whole entry): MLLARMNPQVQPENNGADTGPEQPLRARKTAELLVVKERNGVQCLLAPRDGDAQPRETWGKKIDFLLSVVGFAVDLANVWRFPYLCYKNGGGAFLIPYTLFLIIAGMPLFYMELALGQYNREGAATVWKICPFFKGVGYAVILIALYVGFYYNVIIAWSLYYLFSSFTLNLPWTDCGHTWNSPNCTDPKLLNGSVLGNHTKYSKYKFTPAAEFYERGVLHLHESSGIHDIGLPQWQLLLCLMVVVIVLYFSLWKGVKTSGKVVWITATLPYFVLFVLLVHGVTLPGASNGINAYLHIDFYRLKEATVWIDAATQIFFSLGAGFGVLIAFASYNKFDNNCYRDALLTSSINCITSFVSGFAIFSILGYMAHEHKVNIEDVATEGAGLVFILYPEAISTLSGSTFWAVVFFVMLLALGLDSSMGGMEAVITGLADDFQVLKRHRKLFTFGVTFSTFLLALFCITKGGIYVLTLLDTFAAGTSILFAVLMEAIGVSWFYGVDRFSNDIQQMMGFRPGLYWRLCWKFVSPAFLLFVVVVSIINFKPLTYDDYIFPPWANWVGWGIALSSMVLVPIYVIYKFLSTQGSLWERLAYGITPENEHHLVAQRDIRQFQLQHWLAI

[4] = DRUGMATRIX: Phosphodiesterase PDE3 enzyme inhibition (substrate: [3H]cAMP + cAMP); format: tissue-based, Homo sapiens; conditions: platelet; Not Active = under 50% inhibition at 10 µM
[5] = target: Kappa-type opioid receptor (Homo sapiens, UniProt P41145); assay: DRUGMATRIX: Opiate kappa (OP2, KOP) radioligand binding (ligand: [3H] Diprenorphine); format: cell membranes, HEK293, Membrane; conditions: hek293; Not Active = under 50% inhibition at 10 µM
Chain of Kappa-type opioid receptor (P41145 whole entry): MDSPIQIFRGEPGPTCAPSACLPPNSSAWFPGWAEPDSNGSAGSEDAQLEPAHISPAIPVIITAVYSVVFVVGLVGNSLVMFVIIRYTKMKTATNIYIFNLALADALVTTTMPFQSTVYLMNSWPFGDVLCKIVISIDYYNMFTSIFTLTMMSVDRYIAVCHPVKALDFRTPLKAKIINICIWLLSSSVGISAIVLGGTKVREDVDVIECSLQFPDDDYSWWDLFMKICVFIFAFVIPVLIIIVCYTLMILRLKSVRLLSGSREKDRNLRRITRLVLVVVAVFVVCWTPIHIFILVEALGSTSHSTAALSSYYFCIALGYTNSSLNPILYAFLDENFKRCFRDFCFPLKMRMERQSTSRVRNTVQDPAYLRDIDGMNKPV

[6] = target: Protein phosphatase 3 catalytic subunit alpha (Homo sapiens, UniProt Q08209); set-up: species or system Escherichia coli;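 note: inhibition of calcineurin (PP2B) enzyme activity, measured with DiFMUP as the substrate; in other assays of this panel Not Active means under 50% inhibition at 10 µM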
[7] = DRUGMATRIX: Atrial Natriuretic Factor (ANF) radioligand binding (ligand: [125I] ANF (rat)); format: cell membranes, Cavia porcellus, Dunkin-Hartley, Adrenal gland, Membrane; conditions: Not Active = under 50% inhibition at 10 µM
[8] = DRUGMATRIX: Calcium Channel Type L, Dihydropyridine radioligand binding (ligand: [3H] Nitrendipine); format: cell membranes, Rattus norvegicus, Wistar, Cerebral cortex, Membrane; conditions: Not Active = under 50% inhibition at 10 µM
[9] = target: T1, Alpha-2C adrenergic receptor (Homo sapiens, UniProt P18825); assay: DRUGMATRIX: Adrenergic Alpha-2C radioligand binding (ligand: [3H] MK-912); format: cell membranes, Sf9, Membrane; conditions: sf9
T1 sequence (P18825 whole entry): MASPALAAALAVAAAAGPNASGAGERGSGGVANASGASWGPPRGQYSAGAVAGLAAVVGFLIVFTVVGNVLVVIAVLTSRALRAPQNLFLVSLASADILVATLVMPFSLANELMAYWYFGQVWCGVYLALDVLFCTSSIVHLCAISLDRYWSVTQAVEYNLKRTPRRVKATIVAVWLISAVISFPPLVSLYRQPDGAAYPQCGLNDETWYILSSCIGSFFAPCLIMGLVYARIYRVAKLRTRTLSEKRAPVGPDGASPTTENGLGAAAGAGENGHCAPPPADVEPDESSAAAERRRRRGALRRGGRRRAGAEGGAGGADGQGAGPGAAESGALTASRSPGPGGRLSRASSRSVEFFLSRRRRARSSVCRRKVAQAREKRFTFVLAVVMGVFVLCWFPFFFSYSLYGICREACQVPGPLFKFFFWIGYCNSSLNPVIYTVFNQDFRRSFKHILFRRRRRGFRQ

Endothelin-1 receptor = target: T2, Endothelin-1 receptor (Homo sapiens, UniProt P25101); format: cell membranes, Membrane; conditions: cho-k1; note: in other assays of this panel Not Active means under 50% inhibition at 10 µM
T2 sequence (P25101 whole entry): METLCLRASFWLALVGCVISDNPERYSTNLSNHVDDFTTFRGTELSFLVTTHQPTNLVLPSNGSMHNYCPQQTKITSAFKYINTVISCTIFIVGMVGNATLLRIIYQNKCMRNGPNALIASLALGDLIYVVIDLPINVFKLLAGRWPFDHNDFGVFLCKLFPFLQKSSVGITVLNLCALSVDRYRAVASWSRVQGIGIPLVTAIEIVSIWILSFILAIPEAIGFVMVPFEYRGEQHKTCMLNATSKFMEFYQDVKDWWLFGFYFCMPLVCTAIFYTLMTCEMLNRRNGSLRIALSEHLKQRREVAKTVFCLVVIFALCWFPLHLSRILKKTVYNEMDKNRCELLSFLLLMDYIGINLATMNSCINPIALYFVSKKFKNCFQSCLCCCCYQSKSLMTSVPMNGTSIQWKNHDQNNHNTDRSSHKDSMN

Cytochrome P450 2C9 = Cytochrome P450 2C9 (Homo sapiens, UniProt P11712); conditions: bti-tn-5b1-4; note: in other assays of this panel Not Active means under 50% inhibition at 10 µM
Chain of Cytochrome P450 2C9 (P11712 whole entry): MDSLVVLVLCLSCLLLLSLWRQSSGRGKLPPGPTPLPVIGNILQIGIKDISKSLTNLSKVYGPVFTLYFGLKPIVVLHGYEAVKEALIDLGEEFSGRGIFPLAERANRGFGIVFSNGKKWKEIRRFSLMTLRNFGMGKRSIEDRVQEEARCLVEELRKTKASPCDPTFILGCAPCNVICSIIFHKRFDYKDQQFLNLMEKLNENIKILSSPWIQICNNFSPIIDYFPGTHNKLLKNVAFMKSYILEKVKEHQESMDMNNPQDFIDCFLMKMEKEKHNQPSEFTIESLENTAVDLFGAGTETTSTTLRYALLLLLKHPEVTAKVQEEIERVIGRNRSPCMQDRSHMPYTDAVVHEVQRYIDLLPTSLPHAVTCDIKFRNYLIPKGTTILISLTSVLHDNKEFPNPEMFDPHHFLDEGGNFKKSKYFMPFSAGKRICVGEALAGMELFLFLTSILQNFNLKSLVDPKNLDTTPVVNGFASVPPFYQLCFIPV

Cannabinoid receptor 1 = Cannabinoid receptor 1 (Homo sapiens, UniProt P21554); format: cell membranes, Membrane; conditions: chem-1; note: in other assays of this panel Not Active means under 50% inhibition at 10 µM
Chain of Cannabinoid receptor 1 (P21554 whole entry): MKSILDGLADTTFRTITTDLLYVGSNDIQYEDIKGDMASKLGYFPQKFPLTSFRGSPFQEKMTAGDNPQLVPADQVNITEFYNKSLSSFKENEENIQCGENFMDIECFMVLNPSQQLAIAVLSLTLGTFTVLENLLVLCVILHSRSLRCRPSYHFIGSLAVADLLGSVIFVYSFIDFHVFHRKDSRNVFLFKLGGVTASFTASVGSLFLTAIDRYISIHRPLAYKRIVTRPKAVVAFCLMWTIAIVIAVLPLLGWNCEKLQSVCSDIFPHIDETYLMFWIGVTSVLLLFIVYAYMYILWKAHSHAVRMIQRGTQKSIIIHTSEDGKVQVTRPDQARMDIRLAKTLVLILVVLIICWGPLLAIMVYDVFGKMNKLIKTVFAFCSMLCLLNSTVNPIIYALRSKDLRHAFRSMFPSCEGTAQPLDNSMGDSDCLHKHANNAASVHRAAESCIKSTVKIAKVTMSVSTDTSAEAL

[10] = target: T3, 5-hydroxytryptamine receptor 1A (Rattus norvegicus, UniProt P19327); format: cell membranes, CHO-K1, Membrane; conditions: cho-k1; note: in other assays of this panel Not Active means under 50% inhibition at 10 µM
T3 sequence (P19327 whole entry): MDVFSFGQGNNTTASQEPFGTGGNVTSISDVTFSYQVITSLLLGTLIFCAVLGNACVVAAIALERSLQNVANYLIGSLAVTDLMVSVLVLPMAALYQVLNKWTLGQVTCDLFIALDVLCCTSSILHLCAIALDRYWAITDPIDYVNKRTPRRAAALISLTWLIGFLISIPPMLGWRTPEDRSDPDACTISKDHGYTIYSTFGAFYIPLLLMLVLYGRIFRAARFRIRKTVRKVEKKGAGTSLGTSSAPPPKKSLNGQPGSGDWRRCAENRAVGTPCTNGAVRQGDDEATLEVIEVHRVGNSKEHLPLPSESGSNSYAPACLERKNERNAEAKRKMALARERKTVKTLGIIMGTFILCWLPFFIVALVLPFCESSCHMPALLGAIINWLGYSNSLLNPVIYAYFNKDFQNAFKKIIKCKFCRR

[11] = target: T4, Muscarinic acetylcholine receptor M2 (Homo sapiens, UniProt P08172); format: cell membranes, CHO-K1, Membrane; conditions: cho-k1; note: in other assays of this panel Not Active means under 50% inhibition at 10 µM
T4 sequence (P08172 whole entry): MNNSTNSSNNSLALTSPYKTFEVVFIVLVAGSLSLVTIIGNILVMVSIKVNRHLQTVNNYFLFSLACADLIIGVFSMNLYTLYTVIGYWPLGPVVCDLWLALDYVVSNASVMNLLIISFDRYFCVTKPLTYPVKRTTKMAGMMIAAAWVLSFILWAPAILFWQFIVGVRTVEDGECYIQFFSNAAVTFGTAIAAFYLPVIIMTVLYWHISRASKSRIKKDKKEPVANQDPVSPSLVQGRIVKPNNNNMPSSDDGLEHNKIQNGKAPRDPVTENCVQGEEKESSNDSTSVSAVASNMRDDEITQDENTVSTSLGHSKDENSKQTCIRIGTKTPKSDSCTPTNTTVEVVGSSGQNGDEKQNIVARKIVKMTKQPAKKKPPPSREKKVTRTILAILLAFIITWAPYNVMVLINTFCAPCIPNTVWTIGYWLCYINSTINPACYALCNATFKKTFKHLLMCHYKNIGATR

C=C1CC[C@H](O)C/C1=C/C=C1\CCC[C@]2(C)[C@@H]([C@H](C)/C=C/[C@H](C)C(C)C)CC[C@@H]12 [ERGOCALCIFEROL]
Not Active: IC50 [1] | Ki [1] | IC50 [2] | IC50 [3] | IC50 [4] | Ki [4] | IC50 [5] | IC50 [6] | IC50 [7] | Ki [7] | IC50 [8] | Ki [8] | IC50 [9] | IC50 (Endothelin-1 receptor) | IC50 (Cytochrome P450 2C9) | Ki (Cytochrome P450 2C9) | IC50 (Cannabinoid receptor 1) | IC50 [10] | IC50 [11]

CCc1cccc2c3c([nH]c12)C(CC)(CC(=O)O)OCC3 (centres undefined) [ETODOLAC]
Not Active: IC50 [1] | Ki [1] | IC50 [2] | IC50 [3] | IC50 [4] | Ki [4] | IC50 [5] | IC50 [6] | IC50 [7] | Ki [7] | IC50 [8] | Ki [8] | IC50 [9] | IC50 (Endothelin-1 receptor) | IC50 (Cytochrome P450 2C9) | Ki (Cytochrome P450 2C9) | IC50 (Cannabinoid receptor 1) | IC50 [10] | IC50 [11]

Cn1cnc([N+](=O)[O-])c1Sc1ncnc2nc[nH]c12 [AZATHIOPRINE]
Not Active: IC50 [1] | Ki [1] | IC50 [2] | IC50 [3] | IC50 [4] | Ki [4] | IC50 [5] | IC50 [6] | IC50 [7] | Ki [7] | IC50 [8] | Ki [8] | IC50 [9] | IC50 (Endothelin-1 receptor) | IC50 (Cytochrome P450 2C9) | Ki (Cytochrome P450 2C9) | IC50 (Cannabinoid receptor 1) | IC50 [10] | IC50 [11]

CC(/C=C1\SC(=S)N(CC(=O)O)C1=O)=C\c1ccccc1
Not Active: IC50 [1] | Ki [1] | IC50 [2] | IC50 [3] | IC50 [4] | Ki [4] | IC50 [5] | IC50 [6] | IC50 [7] | Ki [7] | IC50 [8] | Ki [8] | IC50 [9] | IC50 (Endothelin-1 receptor) | IC50 (Cytochrome P450 2C9) | Ki (Cytochrome P450 2C9) | IC50 (Cannabinoid receptor 1) | IC50 [10] | IC50 [11]

N=C(N)NCCCCNC(=N)N.O=S(=O)(O)O [ARCAINE SULFATE]
Not Active: IC50 [1] | Ki [1] | IC50 [2] | IC50 [3] | IC50 [4] | Ki [4] | IC50 [5] | IC50 [6] | IC50 [7] | Ki [7] | IC50 [8] | Ki [8] | IC50 [9] | IC50 (Endothelin-1 receptor) | IC50 (Cytochrome P450 2C9) | Ki (Cytochrome P450 2C9) | IC50 (Cannabinoid receptor 1) | IC50 [10] | IC50 [11]

CC1(C)[C@@H](O[C@H]2O[C@H](C(=O)O)[C@@H](O)[C@H](O)[C@H]2O[C@@H]2O[C@H](C(=O)O)[C@@H](O)[C@H](O)[C@H]2O)CC[C@]2(C)[C@H]3C(=O)C=C4[C@@H]5C[C@@](C)(C(=O)O)CC[C@]5(C)CC[C@@]4(C)[C@]3(C)CC[C@@H]12 [GLYCYRRHIZIN]
Not Active: IC50 [1] | Ki [1] | IC50 [2] | IC50 [3] | IC50 [4] | Ki [4] | IC50 [5] | IC50 [6] | IC50 [7] | Ki [7] | IC50 [8] | Ki [8] | IC50 [9] | IC50 (Endothelin-1 receptor) | IC50 (Cytochrome P450 2C9) | Ki (Cytochrome P450 2C9) | IC50 (Cannabinoid receptor 1) | IC50 [10] | IC50 [11]
